In patent US20040038861A1, “Methods and compositions for normalizing lipid levels in mammalian tissues” (priority 2001, published 2004):

Test system: soleus muscle
Test: Individual free fatty acids by gas chromatography in isolated soleus muscle from normally fed rats
Type: cell-based, rat
Details: for Total free fatty acids / free fatty acid C14:0 as percentage of total resting fatty acid / free fatty acid C15:0 as percentage of total resting fatty acid / free fatty acid C16:0 as percentage of total resting fatty acid / free fatty acid C16:1 (n-7) as percentage of total resting fatty acid / free fatty acid C16:1 (n-9) as percentage of total resting fatty acid / free fatty acid C17:0 as percentage of total resting fatty acid / free fatty acid C18:0 as percentage of total resting fatty acid / free fatty acid C18:1 (n-7) as percentage of total resting fatty acid / free fatty acid C18:1 (n-9) as percentage of total resting fatty acid / free fatty acid C18:2 as percentage of total resting fatty acid / free fatty acid C18:3 as percentage of total resting fatty acid / free fatty acid C20:0 as percentage of total resting fatty acid / free fatty acid C20:4 as percentage of total resting fatty acid / free fatty acid C20:5 as percentage of total resting fatty acid / free fatty acid C22:4 as percentage of total resting fatty acid / free fatty acid C22:6 as percentage of total resting fatty acid: 1 hour; for Total free fatty acids / free fatty acid adrenic C22:4 / free fatty acid arachidic C20:0 / free fatty acid arachidonic C20:4 / free fatty acid cervonic C22:6 / free fatty acid linoleic C18:2 / free fatty acid linolenic C18:3 / free fatty acid margaric C17:0 / free fatty acid myristic C14:0 / free fatty acid oleic C18:1 / free fatty acid palmitic C16:0 / free fatty acid palmitoleic (n-7) C16:1 / free fatty acid palmitoleic (n-9) C16:1 / free fatty acid pentadecanoic C15:0 / free fatty acid stearic C18:0 / free fatty acid timnodonic C20:5 / free fatty acid vaccenic C18:1: GC; for Total free fatty acids: hormone concentrations 100 nM for all; for free fatty acid C14:0 as percentage of total resting fatty acid / free fatty acid C15:0 as percentage of total resting fatty acid / free fatty acid C16:0 as percentage of total resting fatty acid / free fatty acid C16:1 (n-7) as percentage of total resting fatty acid / free fatty acid C16:1 (n-9) as percentage of total resting fatty acid / free fatty acid C17:0 as percentage of total resting fatty acid / free fatty acid C18:0 as percentage of total resting fatty acid / free fatty acid C18:1 (n-7) as percentage of total resting fatty acid / free fatty acid C18:1 (n-9) as percentage of total resting fatty acid / free fatty acid C18:2 as percentage of total resting fatty acid / free fatty acid C18:3 as percentage of total resting fatty acid / free fatty acid C20:0 as percentage of total resting fatty acid / free fatty acid C20:4 as percentage of total resting fatty acid / free fatty acid C20:5 as percentage of total resting fatty acid / free fatty acid C22:4 as percentage of total resting fatty acid / free fatty acid C22:6 as percentage of total resting fatty acid / free fatty acid adrenic C22:4 / free fatty acid arachidic C20:0 / free fatty acid arachidonic C20:4 / free fatty acid cervonic C22:6 / free fatty acid linoleic C18:2 / free fatty acid linolenic C18:3 / free fatty acid margaric C17:0 / free fatty acid myristic C14:0 / free fatty acid oleic C18:1 / free fatty acid palmitic C16:0 / free fatty acid palmitoleic (n-7) C16:1 / free fatty acid palmitoleic (n-9) C16:1 / free fatty acid pentadecanoic C15:0 / free fatty acid stearic C18:0 / free fatty acid timnodonic C20:5 / free fatty acid vaccenic C18:1: normally fed rats; for free fatty acid adrenic C22:4 / free fatty acid arachidic C20:0 / free fatty acid arachidonic C20:4 / free fatty acid cervonic C22:6 / free fatty acid linoleic C18:2 / free fatty acid linolenic C18:3 / free fatty acid margaric C17:0 / free fatty acid myristic C14:0 / free fatty acid oleic C18:1 / free fatty acid palmitic C16:0 / free fatty acid palmitoleic (n-7) C16:1 / free fatty acid palmitoleic (n-9) C16:1 / free fatty acid pentadecanoic C15:0 / free fatty acid stearic C18:0 / free fatty acid timnodonic C20:5 / free fatty acid vaccenic C18:1: hormone 1 hour
Description: Animal models. Normallyfed rats. All protocols were approved by the University of Auckland Animal Ethics Committee. Male Wistar rats, (age=50 d) weighing 200-250 g, were housed in a constant 12 h/12 h-light/dark cycle and received standard rat-chow (Diet 86, NRM, Auckland) and water ad libitum. The standard diet contained 5% fat (w/w), which comprised mainly beef tallow. The triglyceride, total and free fatty acid contents of representative samples of this diet were analyzed, and are shown in Table 3. Rats were anaesthetized by intraperitoneal injection of sodium pentobarbital (45 mg/kg body weight) then sacrificed by cervical dislocation.
Soleus muscle tissue isolation and incuhation.Immersion and incubation media was Krebs-Henseleit buffer (KHB) containing 118.5 mM NaCl, 4.75 mM KCl, 1.18 mM MgSO4.7H2O and KH2PO4, 24.8 mM NaHCO3, 2.54 mM CaCl2 and 10 mM d-glucose. The medium was gassed continuously with 95% O2/5% CO2. […] Soleus muscles of both legs were excised keeping the tissue immersed in KHB; muscles were separated into two equal parts and transferred to the incubation flasks. At the completion of incubation the muscles were snap frozen in liquid nitrogen, and then trimmed of connective tissue and all visible fat. The muscle strips were stored at −80° C. until analysis.
Lipid extraction and chromatographic separation of fatty acids. Total lipids were extracted from muscle strips by a modified version of the method of Bligh and Dyer (Gorski et al., 1988, Mol & Cell Biochem 178:113-118; 1. Bligh et al., 1959, Can J Biochem Physiol 37: 911-917). Muscles were homogenised (Soniprep 150) in 0.4 ml of deionised water. Solvent volumes used herein were varied according to the water content of the muscle (ie muscle weight) as described (Bligh & Dyer, supra). 2 vols of methanol containing 0.005% butylated hydroxy toluene (BHT) and 1 vol chloroform were added to the muscle suspension. Homogenates were vortexed at maximum speed for 2 minutes and centrifuged at 2,500 g for 4 minutes. Supernatants were recovered and pellets re-extracted with 2 vol methanol, 1 vol chloroform and 0.8 vol 0.2 N HCl. Residues were vortexed for 2 min then centrifuged at 3,500 g for 3 min. After centrifugation the combined supernatants were diluted with 2v each of milli Q water and chloroform and the phases separated by centrifugation at 3,500 g for 4 minutes. The lower chloroform phase was recovered, neutralised by dropwise addition of 0.2 N methanolic NH4OH and evaporated down in a stream of N2. The samples were stored at −80° C. until required.
Aminopropyl phase (250 mg) was packed into 16 ml teflon columns with teflon frits placed at the top and bottom of the bonded phase. Columns were placed in a Vac Elut apparatus and washed twice with 2 ml portions of hexane (Prasad et al., 1988, J Chromato 428: 221-228; Kaluzny et al., 1985, J Lipid Res 26: 135-140). The dry lipid samples were taken up in two 0.150 ml portions of chloroform and applied to the column under atmospheric pressure. After adsorption the neutral lipids were eluted with 4 ml of chloroform-2-propanol (2:1, v/v) and the free fatty acids eluted with 4 ml of 2% acetic acid in diethyl ether. The solvent containing the free fatty acids was dried under a stream of N2.
Gas-liquid chromatographic analysis. Dry free fatty acid residues were processed for derivatisation of methyl esters by the boron trifluoride-methanol method (Prasad, supra). 1 ml of boron trifluoride in methanol (BF3) was added to each sample, the sample vials were heated at 70° C. for 5 minutes, shaken vigorously, and baked for a further 10 minutes. Once the samples reached room temperature 0.5 ml milli Q water was added, the sample vials shaken, 0.1 ml heptane was added and the sample shaken again. 0.05 ml of the top heptane layer was removed for GLC analysis. […]

Row | Compound | Total free fatty acids [nmol/g wwt] | free fatty acid C14:0 as percentage of total resting fatty acid [%] | free fatty acid C15:0 as percentage of total resting fatty acid [%] | free fatty acid C16:0 as percentage of total resting fatty acid [%] | free fatty acid C16:1 (n-7) as percentage of total resting fatty acid [%] | free fatty acid C16:1 (n-9) as percentage of total resting fatty acid [%] | free fatty acid C17:0 as percentage of total resting fatty acid [%] | free fatty acid C18:0 as percentage of total resting fatty acid [%] | free fatty acid C18:1 (n-7) as percentage of total resting fatty acid [%] | free fatty acid C18:1 (n-9) as percentage of total resting fatty acid [%] | free fatty acid C18:2 as percentage of total resting fatty acid [%] | free fatty acid C18:3 as percentage of total resting fatty acid [%] | free fatty acid C20:0 as percentage of total resting fatty acid [%] | free fatty acid C20:4 as percentage of total resting fatty acid [%] | free fatty acid C20:5 as percentage of total resting fatty acid [%] | free fatty acid C22:4 as percentage of total resting fatty acid [%] | free fatty acid C22:6 as percentage of total resting fatty acid [%] | free fatty acid adrenic C22:4 [nmol/g wwt] | free fatty acid arachidic C20:0 [nmol/g wwt] | free fatty acid arachidonic C20:4 [nmol/g wwt] | other results
1 | NC[C@H](O)c1ccc(O)c(O)c1 [Norepinephrine, norepinephrine] | 0.527 ± 0.03 | 3.1 | 10.9 | 2.2 | 14.3 | 6.0 | 7.2 | 2.4 | 1.2 | 1.4 | 0.8 | 2.5 | 2.0 | 0.9 | 0.4 | 7.5 | 2.5 | 0.007 ± 0.001 | 0.003 ± 0.001 | 0.015 ± 0.0007 | free fatty acid cervonic C22:6: 0.022 ± 0.0015 nmol/g wwt; free fatty acid linoleic C18:2: 0.043 ± 0.003 nmol/g wwt; free fatty acid linolenic C18:3: 0.007 ± 0.0025 nmol/g wwt; free fatty acid margaric C17:0: 0.01 ± 0.0007 nmol/g wwt; free fatty acid myristic C14:0: 0.023 ± 0.001 nmol/g wwt; free fatty acid oleic C18:1: 0.07 ± 0.0056 nmol/g wwt; free fatty acid palmitic C16:0: 0.175 ± 0.011 nmol/g wwt; free fatty acid palmitoleic (n-7) C16:1: 0.015 ± 0.002 nmol/g wwt; free fatty acid palmitoleic (n-9) C16:1: 0.007 ± 0.0007 nmol/g wwt; free fatty acid pentadecanoic C15:0: 0.01 ± 0.0012 nmol/g wwt; free fatty acid stearic C18:0: 0.1 ± 0.006 nmol/g wwt; free fatty acid timnodonic C20:5: 0.002 ± 0.0005 nmol/g wwt; free fatty acid vaccenic C18:1: 0.015 ± 0.0008 nmol/g wwt; free fatty acid arachidonic C20:4 (listed as norepinephrine): 0.015±0.0007 nmol/g wwt; free fatty acid cervonic C22:6 (listed as norepinephrine): 0.022±0.0015 nmol/g wwt; free fatty acid palmitoleic (n-9) C16:1 (listed as norepinephrine): 0.007±0.0007 nmol/g wwt
2 | rat CGRP-1 | 0.691 ± 0.04 | 3.6 | 12.9 | 2.9 | 21.6 | 7.5 | 10.7 | 3.6 | 1.4 | 1.8 | 1.0 | 2.1 | 3.6 | 1.1 | 1.0 | 8.1 | 2.7 | 0.007 ± 0.002 | 0.007 ± 0.0008 | 0.018±0.002 | free fatty acid cervonic C22:6: 0.022±0.002 nmol/g wwt; free fatty acid linoleic C18:2: 0.057 ± 0.006 nmol/g wwt; free fatty acid linolenic C18:3: 0.005 ± 0.0013 nmol/g wwt; free fatty acid margaric C17:0: 0.015 ± 0.0015 nmol/g wwt; free fatty acid myristic C14:0: 0.028 ± 0.001 nmol/g wwt; free fatty acid oleic C18:1: 0.09 ± 0.0075 nmol/g wwt; free fatty acid palmitic C16:0: 0.23 ± 0.01 nmol/g wwt; free fatty acid palmitoleic (n-7) C16:1: 0.022 ± 0.002 nmol/g wwt; free fatty acid palmitoleic (n-9) C16:1: 0.008±0.0006 nmol/g wwt; free fatty acid pentadecanoic C15:0: 0.01 ± 001 nmol/g wwt; free fatty acid stearic C18:0: 0.15 ± 0.01 nmol/g wwt; free fatty acid timnodonic C20:5: 0.003 ± 0.0005 nmol/g wwt; free fatty acid vaccenic C18:1: 0.017 ± 0.0015 nmol/g wwt
3 | Rat amylin | 0.636 ± 0.05 | 3.4 | 15.4 | 2.6 | 15.8 | 7.2 | 10.7 | 2.9 | 1.3 | 1.6 | 1.1 | 3.7 | 4.5 | 1.0 | 1.4 | 9.1 | 3.3 | 0.008 ± 0.003 | 0.008 ± 0.002 | 0.016±0.002 | free fatty acid cervonic C22:6: 0.03±0.004 nmol/g wwt; free fatty acid linoleic C18:2: 0.058 ± 0.006 nmol/g wwt; free fatty acid linolenic C18:3: 0.01 ± 0.002 nmol/g wwt; free fatty acid margaric C17:0: 0.013 ± 0.0022 nmol/g wwt; free fatty acid myristic C14:0: 0.026 ± 0.0028 nmol/g wwt; free fatty acid oleic C18:1: 0.076 ± 0.0082 nmol/g wwt; free fatty acid palmitic C16:0: 0.21 ± 0.0188 nmol/g wwt; free fatty acid palmitoleic (n-7) C16:1: 0.015 ± 0.0025 nmol/g wwt; free fatty acid palmitoleic (n-9) C16:1: 0.008±0.0013 nmol/g wwt; free fatty acid pentadecanoic C15:0: 0.013 ± 0.002 nmol/g wwt; free fatty acid stearic C18:0: 0.125 ± 0.0058 nmol/g wwt; free fatty acid timnodonic C20:5: 0.005 ± 0.0007 nmol/g wwt; free fatty acid vaccenic C18:1: 0.015 ± 0.0015 nmol/g wwt; free fatty acid arachidonic C20:4 (listed as Amylin): 0.016 ± 0.002 nmol/g wwt; free fatty acid cervonic C22:6 (listed as Amylin): 0.03 ± 0.004 nmol/g wwt; free fatty acid palmitoleic (n-9) C16:1 (listed as Amylin): 0.008 ± 0.0013 nmol/g wwt
